Assay type in all cases: functional
Assay [1] has as its system A549. Kind of assay: Percent growth inhibition of A-549 human lung adenocarcinoma at 10e-6 M compound concentration in standard MTT assay.
The test system of assay [2] is A549. Nature of the assay: Percent growth inhibition of A-549 human lung adenocarcinoma at 10e-7 M compound concentration in standard MTT assay.
In assay [3] the test system is A549. Nature of the assay: Percent growth inhibition of A-549 human lung adenocarcinoma at 10e-8 M compound concentration in standard MTT assay.
For assay [4], the system named is P388. Nature of the assay: Percent growth inhibition of P388 mouse leukemia at 10e-6 M compound concentration in standard MTT assay.
Assay [5] relates to P388. Nature of the assay: Percent growth inhibition of P388 mouse leukemia at 10e-7 M compound concentration in standard MTT assay.
Assay [6] relates to P388. Nature of the assay: Percent growth inhibition of P388 mouse leukemia at 10e-8 M compound concentration in standard MTT assay.

On to `CC(=O)OC1C(O[C@H]2CC[C@@]3(C)C(=CCC4C3CC[C@@]3(C)C4C[C@@H](OC4OCC(O)C(OC5OCC(O)C(O)C5OC(C)c5ccccc5)C4OC(C)=O)[C@]3(O)[C@H](C)C(=O)CCC(C)C)C2)OCC(O)C1OC1OCC(O)C(O)C1OC(C)c1ccccc1` (stereo not given in full), for which the inhibition at 1 µM in the assay with A549 [1] stood at 80.9%; in the assay with P388 [4], 90.7%. The inhibition at 0.1 µM in the assay with A549 [2] was 6.7%; in the assay with P388 [5], 52%. At 0.01 µM the inhibition in the assay with A549 [3] was 0.7%.
As to `CC(=O)OC[C@@H](C)[C@@]1(O)[C@H](OC2OCC(O)C(OC3OCC(O)C(O)C3OC(C)c3ccccc3)C2OC(C)=O)CC2C3CC=C4C[C@@H](OC(C)=O)CC[C@]4(C)C3CC[C@@]21C` (stereo not given in full), the inhibition at 1 µM was determined as 6.2% in the assay on A549 [1] and 20.4% in the assay on P388 [4]. Besides, the results for the inhibition at 0.1 µM with A549 [2] and in the assay with P388 [5] were 0.8% and 15.5%, respectively. The same compound returned an inhibition at 0.01 µM in the assay on P388 [6] of 17.9%.
Regarding `CC(=O)OC1C(O[C@@H]2CC3C4CC=C5C[C@@H](O)CC[C@]5(C)C4CC[C@]3(C)[C@@]2(O)[C@H](C)C(=O)CCC(C)C)OCC(O)C1OC1OCC(O)C(O)C1OC(C)c1ccccc1` (stereo not given in full), the inhibition at 1 µM stood at 53.8% with A549 [1] and 66.7% with P388 [4]. In addition, the inhibition at 0.1 µM in the assay on A549 [2] worked out at 29.5%; with P388 [5] it was 35.4%. The inhibition at 0.01 µM in the assay with P388 [6] was found to be 15.5%.

(Values after ChEMBL document CHEMBL1133911, “Synthesis of OSW-1 analogues and a dimer and their antitumor activities” (Bioorg Med Chem Lett, 2001).)
